Measured values published in PMC11856857, “Protease-Resistant, Broad-Spectrum Antimicrobial Peptides with High Antibacterial and Antifungal Activity” (Life, 2025).
≈ marks a conversion by molar mass, not a printed value. Where a SMILES comes first, the peptide text is derived from it.

What was measured:
[1] = test system: Acinetobacter baumannii (AB)
Protocol: (§2) Clinically resistant bacterial strains that are classified as “ESKAPE pathogens”, including vancomycin-resistant Enterococcus faecium (VRE), methicillin-resistant S. aureus (MRSA), Klebsiella pneumoniae (KP), Acinetobacter baumannii (AB), P. aeruginosa (PA) by WHO21, multi-drug-resistant Aspergillus flavus (AF), C. albicans (CA), and C. krusei (CK), were provided by Acibadem Labmed.
(§3) The antibacterial activity of the bacterial strains was determined using the EUCAST broth microdilution method [24]. Bacterial strains were streaked into the MHA and incubated at 37 °C overnight. The initial doses were adjusted to 1024 µg/mL using a peptide concentration measurement kit (Pierce™ Quantitative Fluorometric Peptide Assay, Thermo Scientific™) and serially diluted to 0.125 µg/mL. All samples were tested in triplicate [25, 26]. The antifungal activity of the Candida species was measured in accordance with the guidelines in CLSI document M27-A3 [27].

[2] = biological target: T1, proteinase K (Parengyodontium album, UniProt P06873); test: Stability toward enzymatic degradation (protease resistance assay); assay type: in vitro ADME; conditions: peptide 1 mg/mL in TBS (50 mM Tris, 150 mM NaCl, pH 7.6) with 10% DMSO, proteinase K 1 mg/mL (30 U/mg), 37 °C, overnight (also 10 min, 30 min), HPLC at 214 nm
T1 construct: purchased Qiagen
Protocol: Peptide solutions were prepared at a final concentration of 1 mg/mL in TBS buffer (50 mM Tris, 150 mM NaCl, pH 7.6) including 10% DMSO. The proteinase K solution was adjusted to 1 mg/mL (enzyme activity = 30 U/mg). The peptide solution was then incubated at 37 °C overnight in an orbital shaker. After incubation, the reaction was blocked by adding 1% TFA (100 µL) in water. Peptide solutions with/without the proteinase K enzyme were analyzed at 214 nm using HPLC with an analytic column (AdvanceBio Peptide Plus, 2.1 × 150 mm, 2.7 µm, LC column, Agilent Technologies, Santa Clara, CA, USA) following the linear gradient method (30 min in a range of 5–80% acetonitrile including 0.025% TFA). MIC experiments were repeated to measure biological activities after treating the peptides with proteinase K.

[3] = test system: ESKAPE pathogens, multi-drug-resistant A. flavus (AF), and C. albicans (CA) strains
Protocol: as §2, §3

[4] = test system: P. aeruginosa (PA)
Protocol: as §3

[5] = test system: Klebsiella pneumoniae (KP)
Protocol: as §3

[6] = test system: HaCaT cell line; assay type: cell-based, human; conditions: 24 h
Protocol: (§1) 3T3 and HaCaT cells were grown in DMEM consisting of 1% pen/strep and 10% FBS. A total of 5 × 10^4 cells were loaded into each well of a 96-well plate and incubated at 37 °C using a 5% CO2 incubator. All samples were measured in triplicate between 0.5–32 µg/mL concentrations and incubated at 37 °C for 24 h in a 5% CO2 incubator. Only cells and Mag-2 were used as negative and positive controls, respectively. After 24 h, cell cytotoxicity was evaluated using a cell proliferation kit (MTT, Roche, Basel, Switzerland) following the kit protocol and analyzed at 550 nm and 690 nm using a microplate reader (Gen5 Synergy HT BioTek). The concentration of peptides that killed 50% of the cells was determined as the IC50 in the cytotoxicity experiments.

[7] = test system: C. albicans ATCC 10231; assay type: cell-based, Candida albicans
[8] = test system: 3t3 cell line; assay type: cell-based, mouse; conditions: 24 h
Protocol: as §1

[9] = test system: S. aureus (ATCC 29213) inoculated wound
[10] = test system: Aspergillus flavus (AF); conditions: clinical strain AF1
Protocol: as §2, §3

[11] = test system: methicillin-resistant S. aureus (MRSA)
Protocol: as §3

[12] = test system: C.krusei (CK)
Protocol: as §3

[13] = test system: vancomycin-resistant Enterococcus faecium (VRE)
Protocol: as §2, §3

[14] = test system: C.albicans (CA)
Protocol: as §3

[15] = test system: resistant Klebsiella pneumoniae (KP) strain; assay type: cell-based; conditions: resistant (KP) strain
[16] = test system: S. aureus (ATCC 29213)-infected silk suture wound; test: Surgical site infection model; assay type: in vivo, Wistar rats; conditions: MICX40, 100 µL topically once, 3 h after treatment; p < 0.01
Protocol: Two McFarland S. aureus (ATCC 29213) bacteria were used for suture contamination. The 1.5 cm silk sutures (3-0) were incubated in brain heart infusion (BHI) broth at 37 °C, 150 rpm for 10 min. At the end of the incubation, the sutures were dried on sterile filter paper for 10 min. After drying, one of the sutures was placed in BHI broth, and the bacteria were measured. The number of bacteria obtained from the suture was 7 × 10^5 CFU/mL.
The rats were randomly divided into four groups consisting of seven rats per group and anesthetized with isoflurane. The back of the rat was shaved, sterilized with 70% ethanol, and two 1.5 cm full-thickness wounds were incised centrally on the dorsal midline of the neck. A 1.5 cm S. aureus (ATCC 29213)-infected 3-0 silk suture was placed into the wound incision. A staple was attached to the middle of the incision to prevent the rat from removing the infected suture. After implantation of the suture into the wound, the rats were treated topically once with 100 µL of D-TN6 (MICX40), ampicillin (MICX40), or SF. The animals were decapitated 3 h after treatment. Wound areas were dissected and placed into BHI broth. After homogenization, the bacteria on the wound were counted.

[17] = MICX40 topically twice a day for 10 days, ELISA, means ± S.E.M.

T1 sequence (P06873 106-384): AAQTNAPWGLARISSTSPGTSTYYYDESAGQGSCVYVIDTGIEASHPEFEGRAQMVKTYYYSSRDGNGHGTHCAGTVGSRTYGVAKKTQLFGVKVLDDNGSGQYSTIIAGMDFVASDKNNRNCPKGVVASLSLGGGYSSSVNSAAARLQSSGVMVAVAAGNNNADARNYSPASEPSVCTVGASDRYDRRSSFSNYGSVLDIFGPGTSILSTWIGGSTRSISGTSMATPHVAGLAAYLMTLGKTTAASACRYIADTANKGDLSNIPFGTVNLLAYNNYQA

CC(C)C[C@@H](NC(=O)[C@H](N)CCCNC(=N)N)C(=O)N[C@H](CC(C)C)C(=O)N[C@H](CCCNC(=N)N)C(=O)N[C@H](CC(C)C)C(=O)N[C@H](CC(C)C)C(=O)N[C@H](CC(C)C)C(=O)N[C@H](CCCNC(=N)N)C(=O)N[C@H](CC(C)C)C(=O)N[C@H](CC(C)C)C(=O)N[C@H](CCCNC(=N)N)C(N)=O [D-TN6] (HELM PEPTIDE1{[dR].[dL].[dL].[dR].[dL].[dL].[dL].[dR].[dL].[dL].[dR].[am]}$$$$V2.0)
MIC range against clinical A. baumannii strains ([1]; AB): 0.25 to 2 µg/mL
MIC AB1 ([1]; clinical strain AB1): 0.25 µg/mL (≈ 0.174 µM)
MIC AB2 ([1]; clinical strain AB2): 2 µg/mL (≈ 1.39 µM)
Stability toward proteinase K (HPLC) [2]: resistant to proteinase K
Stability toward proteinase K (HPLC) ([2]; listed as D- TN6): highly protease-resistant
MIC range against seven species resistant to current antibiotics [3]: 0.25 to 4 µg/mL
MIC PA1 [4]: 1 µg/mL (≈ 0.697 µM)
MIC PA2 [4]: 1 µg/mL (≈ 0.697 µM)
MIC PA3 [4]: 0.5 µg/mL (≈ 0.349 µM)
MIC PA4 [4]: 1 µg/mL (≈ 0.697 µM)
MIC KP1 [5]: 4 µg/mL (≈ 2.79 µM)
MIC KP2 [5]: 2 µg/mL (≈ 1.39 µM)
MIC KP 3 [5]: 1 µg/mL (≈ 0.697 µM)
MIC KP 4 [5]: 1 µg/mL (≈ 0.697 µM)
IC50 HaCaT [6]: 19.64 µg/mL
MIC C. albicans [7]: 0.5 µg/mL (≈ 0.349 µM)
IC50 3t3 [8]: 17.58 µg/mL
Serum CRP ([9]; rat, in vivo): N
indicators of toxicity by ALT, AST, TB, and CRP levels in serum ([9]; rat, in vivo): did not exhibit any indicators of toxicity
toxic alterations of liver tissue hepatocytes and stratified epithelium ([9]; rat, in vivo): did not exhibit any toxic alterations
MIC AF1 [10]: 4 µg/mL (≈ 2.79 µM)
MIC MRSA 1 ([11]; clinical strain MRSA 1): 0.5 µg/mL (≈ 0.349 µM)
MIC MRSA 2 ([11]; clinical strain MRSA 2): 1 µg/mL (≈ 0.697 µM)
MIC MRSA 3 ([11]; clinical strain MRSA 3): 1 µg/mL (≈ 0.697 µM)
MIC CK 1 ([12]; clinical strain CK 1): 2 µg/mL (≈ 1.39 µM)
MIC CK 2 ([12]; clinical strain CK 2): 2 µg/mL (≈ 1.39 µM)
MIC CK 3 ([12]; clinical strain CK 3): 2 µg/mL (≈ 1.39 µM)
MIC VRE 1 ([13]; clinical strain VRE 1): 0.25 µg/mL (≈ 0.174 µM)
MIC VRE 2 ([13]; clinical strain VRE 2): 0.25 µg/mL (≈ 0.174 µM)
MIC CA 1 ([14]; clinical strain CA 1): 2 µg/mL (≈ 1.39 µM)
MIC CA 2 ([14]; clinical strain CA 2): 2 µg/mL (≈ 1.39 µM)
MIC CA 3 ([14]; clinical strain CA 3): 1 µg/mL (≈ 0.697 µM)
MIC KP1 [15]: 0.5 µg/mL (≈ 0.349 µM)
MIC KP2 [15]: 1 µg/mL (≈ 0.697 µM)
MIC KP8 [15]: 1 µg/mL (≈ 0.697 µM)
MIC KP9 [15]: 0.5 µg/mL (≈ 0.349 µM)
MIC KP13 [15]: 0.5 µg/mL (≈ 0.349 µM)
MIC KP22 [15]: 0.5 µg/mL (≈ 0.349 µM)
MIC KP28 [15]: 1 µg/mL (≈ 0.697 µM)
MIC KP29 [15]: 2 µg/mL (≈ 1.39 µM)
MIC KP35 [15]: 8 µg/mL (≈ 5.58 µM)
MIC KP40 [15]: 2 µg/mL (≈ 1.39 µM)
MIC KP41 [15]: 4 µg/mL (≈ 2.79 µM)
MIC KP42 [15]: 2 µg/mL (≈ 1.39 µM)
MIC KP46 [15]: 2 µg/mL (≈ 1.39 µM)
MIC KP52 [15]: 2 µg/mL (≈ 1.39 µM)

CC1(C)S[C@@H]2[C@H](NC(=O)[C@H](N)c3ccccc3)C(=O)N2[C@H]1C(=O)O [ampicillin]
bacterial counts in wound versus control group [16]: significantly reduced
IL1-β, liver [9, 17]: 705.7 ± 87.07
IL1-β, serum [9, 17]: 826.9 ± 105.5
IL1-β, wound tissue [9, 17]: 1779 ± 45.54
IL-6, liver [9, 17]: 35.51 ± 2.82
IL-6, serum [9, 17]: 50.02 ± 2.04
IL-6, wound tissue [9, 17]: 77.60 ± 4.77
TNF-α, liver [9, 17]: 107.0 ± 8.14
TNF-α, serum [9, 17]: 212.2 ± 9.02
TNF-α, wound tissue [9, 17]: 225.4 ± 12.19
wound healing by day 4 versus control group ([9]; MICX40 topically twice a day, p < 0.01): significantly accelerated
Serum ALT ([9]; rat, in vivo): 52.4 ± 3 U/L
Serum AST ([9]; rat, in vivo): 161.6 ± 12.8 U/L
Serum CRP ([9]; rat, in vivo): N
Serum TB ([9]; rat, in vivo): 0.1 mg/dL
indicators of toxicity by ALT, AST, TB, and CRP levels in serum ([9]; rat, in vivo): did not exhibit any indicators of toxicity
